How the values were obtained:
[1] = biological target: 5-hydroxytryptamine receptor 2B (Homo sapiens, UniProt P41595); type: functional, cell-based
[2] = biological target: T1, Alpha-2A adrenergic receptor (Homo sapiens, UniProt P08913); type: functional, cell-based
T1 sequence (P08913 whole entry): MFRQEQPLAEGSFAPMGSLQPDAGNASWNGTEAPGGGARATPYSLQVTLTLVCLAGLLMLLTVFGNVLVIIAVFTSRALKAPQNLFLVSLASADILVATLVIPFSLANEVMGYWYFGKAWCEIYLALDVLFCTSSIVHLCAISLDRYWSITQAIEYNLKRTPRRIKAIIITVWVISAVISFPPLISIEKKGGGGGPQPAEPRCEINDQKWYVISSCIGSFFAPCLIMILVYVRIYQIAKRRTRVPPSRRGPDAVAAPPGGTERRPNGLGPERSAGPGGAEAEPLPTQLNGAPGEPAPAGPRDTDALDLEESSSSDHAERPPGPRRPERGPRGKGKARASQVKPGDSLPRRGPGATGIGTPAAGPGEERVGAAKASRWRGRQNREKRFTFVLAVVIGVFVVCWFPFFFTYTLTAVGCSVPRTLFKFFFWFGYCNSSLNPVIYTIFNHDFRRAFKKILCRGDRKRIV

[3] = biological target: Adenosine receptor A2a (Homo sapiens, UniProt P29274)
Sequence of Adenosine receptor A2a (P29274 whole entry): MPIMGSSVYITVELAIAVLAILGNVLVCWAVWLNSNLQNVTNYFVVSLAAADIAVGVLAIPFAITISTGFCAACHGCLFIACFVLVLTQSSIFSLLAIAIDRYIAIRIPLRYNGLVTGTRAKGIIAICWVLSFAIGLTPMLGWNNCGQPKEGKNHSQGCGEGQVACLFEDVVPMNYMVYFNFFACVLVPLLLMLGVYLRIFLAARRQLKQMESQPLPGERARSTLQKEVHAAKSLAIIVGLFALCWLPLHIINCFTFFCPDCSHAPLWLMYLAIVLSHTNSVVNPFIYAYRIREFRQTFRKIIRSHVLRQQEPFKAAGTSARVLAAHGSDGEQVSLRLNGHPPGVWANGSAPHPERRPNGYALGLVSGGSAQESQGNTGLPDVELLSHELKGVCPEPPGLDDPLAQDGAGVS

[4] = biological target: T2, Progesterone receptor (Homo sapiens, UniProt P06401); type: functional
T2 sequence (P06401 whole entry): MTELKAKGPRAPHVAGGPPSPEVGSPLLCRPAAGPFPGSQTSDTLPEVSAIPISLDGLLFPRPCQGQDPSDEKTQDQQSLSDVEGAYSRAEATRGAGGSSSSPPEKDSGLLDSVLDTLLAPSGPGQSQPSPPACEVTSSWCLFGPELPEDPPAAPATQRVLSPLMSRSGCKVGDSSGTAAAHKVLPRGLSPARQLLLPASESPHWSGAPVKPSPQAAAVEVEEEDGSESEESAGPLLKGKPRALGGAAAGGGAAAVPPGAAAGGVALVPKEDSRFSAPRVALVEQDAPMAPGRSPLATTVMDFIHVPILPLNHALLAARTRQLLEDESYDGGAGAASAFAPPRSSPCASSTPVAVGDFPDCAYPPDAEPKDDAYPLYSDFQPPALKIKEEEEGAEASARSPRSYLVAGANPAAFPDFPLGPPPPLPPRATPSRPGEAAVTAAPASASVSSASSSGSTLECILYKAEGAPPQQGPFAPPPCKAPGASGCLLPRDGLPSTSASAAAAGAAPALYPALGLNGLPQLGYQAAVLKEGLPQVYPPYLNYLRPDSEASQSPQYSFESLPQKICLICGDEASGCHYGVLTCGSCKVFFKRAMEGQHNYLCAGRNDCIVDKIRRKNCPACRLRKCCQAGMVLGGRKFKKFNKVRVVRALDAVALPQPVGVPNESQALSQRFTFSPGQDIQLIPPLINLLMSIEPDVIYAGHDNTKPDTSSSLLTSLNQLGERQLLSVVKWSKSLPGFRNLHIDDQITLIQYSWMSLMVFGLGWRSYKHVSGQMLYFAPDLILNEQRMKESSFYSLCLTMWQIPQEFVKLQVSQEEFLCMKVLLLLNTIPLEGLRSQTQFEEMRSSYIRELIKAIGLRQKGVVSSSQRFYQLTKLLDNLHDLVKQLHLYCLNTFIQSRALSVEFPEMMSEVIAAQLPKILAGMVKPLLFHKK

[5] = biological target: T3, B2 bradykinin receptor (Homo sapiens, UniProt P30411)
T3 sequence (P30411 whole entry): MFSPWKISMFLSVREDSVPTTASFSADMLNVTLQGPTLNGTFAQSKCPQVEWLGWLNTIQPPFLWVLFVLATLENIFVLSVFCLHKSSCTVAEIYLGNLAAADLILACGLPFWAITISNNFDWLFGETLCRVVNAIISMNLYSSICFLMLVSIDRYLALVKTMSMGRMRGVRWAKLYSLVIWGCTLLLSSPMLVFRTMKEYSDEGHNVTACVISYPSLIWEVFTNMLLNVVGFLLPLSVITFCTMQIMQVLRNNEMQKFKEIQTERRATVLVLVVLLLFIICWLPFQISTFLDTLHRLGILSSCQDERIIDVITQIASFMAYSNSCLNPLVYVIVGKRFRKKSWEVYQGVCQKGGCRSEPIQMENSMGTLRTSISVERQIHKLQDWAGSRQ

[6] = biological target: Histamine H1 receptor (Homo sapiens, UniProt P35367)
Sequence of Histamine H1 receptor (P35367 whole entry): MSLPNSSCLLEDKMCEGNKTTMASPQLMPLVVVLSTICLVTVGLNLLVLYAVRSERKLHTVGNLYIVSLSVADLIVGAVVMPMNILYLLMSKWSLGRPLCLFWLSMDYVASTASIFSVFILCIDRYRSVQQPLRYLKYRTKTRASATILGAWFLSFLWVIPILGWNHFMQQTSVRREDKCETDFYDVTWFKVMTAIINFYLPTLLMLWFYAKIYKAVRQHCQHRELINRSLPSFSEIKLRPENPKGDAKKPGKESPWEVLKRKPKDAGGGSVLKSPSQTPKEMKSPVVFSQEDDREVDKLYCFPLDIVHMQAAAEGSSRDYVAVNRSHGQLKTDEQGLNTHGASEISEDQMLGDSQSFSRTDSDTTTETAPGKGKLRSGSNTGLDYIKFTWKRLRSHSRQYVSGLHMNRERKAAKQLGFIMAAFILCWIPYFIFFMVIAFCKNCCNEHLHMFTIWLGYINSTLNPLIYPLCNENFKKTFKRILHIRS

[7] = biological target: Beta-2 adrenergic receptor (Homo sapiens, UniProt P07550); type: functional, cell-based
Sequence of Beta-2 adrenergic receptor (P07550 whole entry): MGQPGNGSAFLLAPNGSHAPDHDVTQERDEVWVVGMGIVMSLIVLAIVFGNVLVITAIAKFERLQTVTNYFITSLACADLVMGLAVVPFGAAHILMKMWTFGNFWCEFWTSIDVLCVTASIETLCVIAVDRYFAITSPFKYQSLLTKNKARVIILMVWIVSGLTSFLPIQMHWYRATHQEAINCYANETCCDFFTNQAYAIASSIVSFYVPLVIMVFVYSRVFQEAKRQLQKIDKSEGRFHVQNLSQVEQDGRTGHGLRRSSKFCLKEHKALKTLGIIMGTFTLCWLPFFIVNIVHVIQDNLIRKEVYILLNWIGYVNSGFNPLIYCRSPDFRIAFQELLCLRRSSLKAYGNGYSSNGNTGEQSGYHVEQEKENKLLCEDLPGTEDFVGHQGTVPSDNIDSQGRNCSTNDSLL

[8] = biological target: Voltage-dependent L-type calcium channel subunit alpha-1C (Rattus norvegicus, UniProt P22002); type: functional
Sequence of Voltage-dependent L-type calcium channel subunit alpha-1C (P22002 whole entry): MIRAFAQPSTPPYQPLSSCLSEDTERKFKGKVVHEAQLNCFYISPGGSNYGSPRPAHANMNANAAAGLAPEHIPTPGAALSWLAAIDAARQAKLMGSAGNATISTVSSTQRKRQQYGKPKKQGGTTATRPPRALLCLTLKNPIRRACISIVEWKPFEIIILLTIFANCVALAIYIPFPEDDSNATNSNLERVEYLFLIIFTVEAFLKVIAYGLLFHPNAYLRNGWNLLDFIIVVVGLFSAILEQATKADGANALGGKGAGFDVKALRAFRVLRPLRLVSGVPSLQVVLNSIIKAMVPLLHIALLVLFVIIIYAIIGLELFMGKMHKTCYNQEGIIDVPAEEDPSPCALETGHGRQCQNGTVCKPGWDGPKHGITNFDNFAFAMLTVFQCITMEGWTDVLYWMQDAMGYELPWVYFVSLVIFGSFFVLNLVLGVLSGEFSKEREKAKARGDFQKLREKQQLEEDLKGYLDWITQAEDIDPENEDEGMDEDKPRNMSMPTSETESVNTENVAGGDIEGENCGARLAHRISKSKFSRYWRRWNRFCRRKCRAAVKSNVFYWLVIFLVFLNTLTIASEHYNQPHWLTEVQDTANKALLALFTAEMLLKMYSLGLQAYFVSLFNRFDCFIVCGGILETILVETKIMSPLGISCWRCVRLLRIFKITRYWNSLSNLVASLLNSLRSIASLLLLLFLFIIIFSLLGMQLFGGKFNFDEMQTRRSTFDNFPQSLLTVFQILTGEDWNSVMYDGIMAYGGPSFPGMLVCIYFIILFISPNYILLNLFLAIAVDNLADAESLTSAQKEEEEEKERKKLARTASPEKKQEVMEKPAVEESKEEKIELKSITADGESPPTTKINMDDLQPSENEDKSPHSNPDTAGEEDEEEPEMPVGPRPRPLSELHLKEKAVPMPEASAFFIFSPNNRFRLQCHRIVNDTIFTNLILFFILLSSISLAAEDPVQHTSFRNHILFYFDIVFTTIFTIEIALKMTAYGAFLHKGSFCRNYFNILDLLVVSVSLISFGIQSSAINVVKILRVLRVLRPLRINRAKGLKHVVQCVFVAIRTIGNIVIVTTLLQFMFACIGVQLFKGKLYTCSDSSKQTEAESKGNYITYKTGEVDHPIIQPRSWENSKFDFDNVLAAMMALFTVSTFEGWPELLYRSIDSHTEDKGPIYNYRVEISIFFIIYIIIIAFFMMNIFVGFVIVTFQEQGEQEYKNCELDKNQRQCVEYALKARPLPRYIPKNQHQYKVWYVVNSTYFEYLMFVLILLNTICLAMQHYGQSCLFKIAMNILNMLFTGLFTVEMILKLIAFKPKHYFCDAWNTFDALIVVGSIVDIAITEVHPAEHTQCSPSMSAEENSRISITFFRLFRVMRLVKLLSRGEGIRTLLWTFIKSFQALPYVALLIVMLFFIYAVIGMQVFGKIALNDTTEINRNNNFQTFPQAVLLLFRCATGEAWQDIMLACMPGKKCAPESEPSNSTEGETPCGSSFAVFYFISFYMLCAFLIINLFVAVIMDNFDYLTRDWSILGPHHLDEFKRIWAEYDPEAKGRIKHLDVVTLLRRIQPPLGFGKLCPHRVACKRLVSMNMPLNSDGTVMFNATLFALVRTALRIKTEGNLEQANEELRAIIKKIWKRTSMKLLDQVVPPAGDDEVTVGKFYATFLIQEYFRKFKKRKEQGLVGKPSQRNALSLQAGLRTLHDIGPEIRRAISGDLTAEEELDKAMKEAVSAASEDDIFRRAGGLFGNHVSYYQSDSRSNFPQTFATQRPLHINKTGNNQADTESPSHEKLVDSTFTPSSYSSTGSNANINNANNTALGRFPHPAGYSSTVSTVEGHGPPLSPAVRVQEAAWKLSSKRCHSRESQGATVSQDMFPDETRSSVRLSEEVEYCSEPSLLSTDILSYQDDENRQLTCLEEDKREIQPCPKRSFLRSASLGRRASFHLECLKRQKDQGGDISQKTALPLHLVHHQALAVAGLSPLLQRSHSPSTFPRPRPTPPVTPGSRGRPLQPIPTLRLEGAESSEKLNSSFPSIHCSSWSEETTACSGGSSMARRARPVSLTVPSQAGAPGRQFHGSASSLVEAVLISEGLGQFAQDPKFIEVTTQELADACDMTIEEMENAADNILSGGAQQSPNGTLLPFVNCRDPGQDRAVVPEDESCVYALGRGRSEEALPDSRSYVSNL

[9] = biological target: T4, Endothelin-1 receptor (Homo sapiens, UniProt P25101)
T4 sequence (P25101 whole entry): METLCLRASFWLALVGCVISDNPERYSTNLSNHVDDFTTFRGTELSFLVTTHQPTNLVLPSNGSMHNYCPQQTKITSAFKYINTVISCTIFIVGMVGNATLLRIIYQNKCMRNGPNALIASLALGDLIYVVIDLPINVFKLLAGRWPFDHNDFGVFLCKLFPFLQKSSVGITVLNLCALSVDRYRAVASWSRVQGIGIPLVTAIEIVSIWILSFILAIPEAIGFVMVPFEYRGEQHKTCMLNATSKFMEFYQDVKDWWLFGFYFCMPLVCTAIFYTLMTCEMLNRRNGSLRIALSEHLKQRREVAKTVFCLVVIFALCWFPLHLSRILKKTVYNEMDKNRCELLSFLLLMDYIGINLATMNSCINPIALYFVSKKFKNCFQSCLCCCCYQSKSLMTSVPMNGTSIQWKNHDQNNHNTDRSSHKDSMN

[10] = biological target: Cannabinoid receptor 1 (Homo sapiens, UniProt P21554); type: functional, cell-based
Sequence of Cannabinoid receptor 1 (P21554 whole entry): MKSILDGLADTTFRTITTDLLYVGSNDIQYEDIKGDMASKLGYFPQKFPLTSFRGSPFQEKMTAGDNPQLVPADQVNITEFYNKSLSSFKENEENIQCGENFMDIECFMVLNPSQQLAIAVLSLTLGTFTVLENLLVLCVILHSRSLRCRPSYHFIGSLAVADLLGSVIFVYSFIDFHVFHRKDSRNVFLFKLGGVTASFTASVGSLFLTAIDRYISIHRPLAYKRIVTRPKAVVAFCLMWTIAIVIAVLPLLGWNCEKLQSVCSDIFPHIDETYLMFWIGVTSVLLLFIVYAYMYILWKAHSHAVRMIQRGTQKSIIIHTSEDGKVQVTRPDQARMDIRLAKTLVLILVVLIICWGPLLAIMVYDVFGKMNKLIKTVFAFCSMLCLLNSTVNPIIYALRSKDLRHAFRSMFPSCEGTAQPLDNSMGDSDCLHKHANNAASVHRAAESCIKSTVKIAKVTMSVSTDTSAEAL

[11] = biological target: Mu-type opioid receptor (Homo sapiens, UniProt P35372)
Sequence of Mu-type opioid receptor (P35372 whole entry): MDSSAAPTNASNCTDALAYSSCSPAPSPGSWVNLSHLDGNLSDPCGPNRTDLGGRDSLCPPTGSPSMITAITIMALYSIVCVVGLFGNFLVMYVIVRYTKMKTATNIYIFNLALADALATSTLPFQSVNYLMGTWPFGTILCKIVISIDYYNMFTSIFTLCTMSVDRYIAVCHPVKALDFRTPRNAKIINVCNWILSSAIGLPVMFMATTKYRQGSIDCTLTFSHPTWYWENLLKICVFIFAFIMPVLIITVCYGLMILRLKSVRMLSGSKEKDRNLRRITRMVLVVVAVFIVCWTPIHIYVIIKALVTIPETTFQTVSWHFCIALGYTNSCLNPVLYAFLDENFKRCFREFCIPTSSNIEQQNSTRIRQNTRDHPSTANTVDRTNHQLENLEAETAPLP

Measured: AC50
Further: assay procedure not described here.

Sequence of 5-hydroxytryptamine receptor 2B (P41595 whole entry): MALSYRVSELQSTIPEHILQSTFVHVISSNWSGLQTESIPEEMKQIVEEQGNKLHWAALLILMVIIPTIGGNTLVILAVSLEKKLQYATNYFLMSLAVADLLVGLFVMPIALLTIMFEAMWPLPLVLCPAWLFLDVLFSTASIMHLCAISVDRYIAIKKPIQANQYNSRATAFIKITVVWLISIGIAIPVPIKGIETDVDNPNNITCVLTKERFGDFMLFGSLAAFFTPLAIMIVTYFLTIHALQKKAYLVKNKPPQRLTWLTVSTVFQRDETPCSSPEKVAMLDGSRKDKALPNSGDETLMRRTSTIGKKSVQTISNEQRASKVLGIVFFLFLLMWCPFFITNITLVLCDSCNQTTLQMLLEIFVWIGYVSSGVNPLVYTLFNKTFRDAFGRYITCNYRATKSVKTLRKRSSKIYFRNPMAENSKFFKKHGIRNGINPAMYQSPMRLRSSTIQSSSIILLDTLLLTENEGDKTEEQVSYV

CC(C)N(CCCCOCC(=O)O)c1cnc(-c2ccccc2)c(-c2ccccc2)n1
> 10 µM: [5]
not listed: [11]
> 30 µM: all other assays above

C[N+]12CCC(CC1)C(OC(=O)C(O)(c1ccccc1)c1ccccc1)C2 (centres undefined)
not listed: [8] | [11]
> 30 µM: all other assays above

CO/N=C(\C(=O)N[C@@H]1C(=O)N2C(C(=O)O)=CCS[C@H]12)c1csc(N)n1 [CEFTIZOXIME]
> 10 µM: [5]
not listed: [8] | [11]
> 30 µM: all other assays above

CO/N=C(\C(=O)N[C@@H]1C(=O)N2C(C(=O)O)=C(CSc3nc(=O)c(=O)[nH]n3C)CS[C@H]12)c1csc(N)n1 [CEFTRIAXONE]
not listed: [8] | [11]
> 30 µM: all other assays above

O=C1Nc2ccc(Cl)cc2C(c2ccccc2Cl)=NC1O (centres undefined) [LORAZEPAM]
> 10 µM: [1] | [2] | [8]
not listed: [4] | [6]
> 30 µM: all other assays above

CN1CCN=C(c2ccccc2)c2cc(Cl)ccc21 [MEDAZEPAM]
not listed: [11]
> 30 µM: all other assays above

Cc1ccnc2c1NC(=O)c1cccnc1N2C1CC1 [NEVIRAPINE]
> 10 µM: [1] | [2] | [11] | [8]
15.2 µM: [3]
> 30 µM: [5] | [7] | [9] | [10]

O=C(NCCO[N+](=O)[O-])c1cccnc1 [NICORANDIL]
not listed: [8] | [11]
> 30 µM: all other assays above

CO[C@H]1C[C@H](O[C@H]2CC[C@@]3(C)[C@H](CC[C@@H]4[C@@H]3CC[C@]3(C)[C@@H](C5=CC(=O)OC5)[C@@H](OC(C)=O)C[C@]43O)C2)O[C@@H](C)[C@@H]1O [OLEANDRIN]
> 30 µM: [2] | [6] | [7] | [10]

COc1cc2[nH]c(C)c(CCN3CCN(c4ccccc4)CC3)c2cc1OC [OXYPERTINE]
1.9 µM: [6]
not listed: [8] | [11]
> 30 µM: all other assays above

c1ccc(C2(N3CCCCC3)CCCCC2)cc1 [PHENCYCLIDINE]
not listed: [8] | [11]
> 30 µM: all other assays above

COc1cc(C(=O)OCc2cccc(COC(=O)c3cc(OC)c(OC)c(OC)c3)n2)cc(OC)c1OC [PIROZADIL]
not listed: [8] | [11]
> 30 µM: all other assays above

CCN1CCCC1CNC(=O)c1cc(S(=O)(=O)CC)ccc1OC (centres undefined) [SULTOPRIDE]
not listed: [8] | [11]
> 30 µM: all other assays above
